Measurements published in patent US20260272895A1, “METHODS AND KITS FOR DELIVERY OF COMPOUNDS INTO CELLS” (Yale University, priority 2023, published 2026).

Experiments:
NIH3T3 cells = test: Assessment of pharmacological effects in vitro in NIH3T3 cells (tubulin staining, multinucleated cells); format: cell-based
Excerpt: Confocal microscopy of the different treatment groups allowed us to visualize Hoechst dye-labeled nuclei to quantify the proportion of cells with multinucleated phenotype which is known to occur with Colchicine treatments.

brain cell types = test: In vivo two-photon imaging of mouse cortex after topical cortical administration of fluorophores; details: for Target: cell type taking up the compound in vivo (Table 1); for in vivo endothelial labeling/uptake: two-photon images of mouse cortex, route and concentration not stated
Experimental: Briefly, animals are anaesthetized via intraperitoneal injections of ketamine/xylazine or via inhaled isoflurane. A region of the skull (3×3 mm) is gently removed with a high-speed drill and the underlying dura is removed. A small glass coverslip is placed over the skull to allow long term optical access for in vivo imaging. Labeling with fluorescent dyes is performed either via intravenous injections or topically application to the cortical surface for 20 min prior to glass cover placement. After recovery, in vivo images are acquired using a two-photon microscope (Bruker Technologies) equipped with a multimodal (fixed wavelength 1040 nm and tunable wavelength) InSight X3 two-photon laser (Spectra Physics) and 20× water immersion objective (Zeiss 1.0N.A.). The two-photon laser is appropriately tuned to excite particular fluorescent dyes and proteins as needed. In selected cases, following in vivo imaging, mice will be sacrificed and perfused for follow up immunohistochemistry and high-resolution confocal imaging (Leica SP8) to further confirm colocalization of dyes and cells expressing particular transporters.
One-month-old wild-type mice were anesthetized using a ketamine/xylazine solution at doses of 100 mg/kg and 10 mg/kg, respectively. The fur around the skull area was shaved, and buprenex (0.1 mg per kg) and carprofen (5 mg per kg) were administered subcutaneously. Mice were kept on a heating pad at 37° C., and anesthesia was periodically monitored. The skin was treated with povidone-iodine solution, followed by cleaning with ethanol, and eye ointment was applied. A small skin section was excised to expose the skull. Thinning of the skull was performed in a circular area, followed by delicately lifting of the remaining skull without harm to the underlying brain. Within the circular region, the dura was gently removed using fine forceps, and a 4 mm cover glass was softly pressed onto the brain surface and affixed to the skull. Fluorescent dyes were applied either through intravenous injections or topically to the cortical surface for 20 minutes before placing the glass cover. A customized head bar was attached either by adhesive (for acute imaging) or permanently implanted (using dental cement, for chronic imaging) onto the skull. Mice were imaged under a two-photon microscope (Prairie Technologies) with a mode-locked MaiTai tunable laser (Spectra Physics). Imaging was performed with a 20× water immersion objective (Zeiss, 1.0NA). Images were captured at depths up to 300 μm from the pial surface using excitation wavelengths ranging from 750 to 950 nm as previously described. Mice undergoing chronic imaging received a recovery period on a heating pad post-surgery, and buprenex (0.1 mg per kg) and carprofen (5 mg per kg) were administered for 3 days.
Batches of 10 compounds were applied through the craniotomy to the cortical surface before placing a cover glass window. No additional washings were performed, and the cover glass was placed, allowing up to 3 hours of imaging of the cortical surface with a two-photon microscope. Following imaging, the data were analyzed to identify potential patterns of cell-specific labeling. […] Positive batches underwent three additional rounds of imaging, with each batch being sequentially split, until a single compound displaying cell-type-specific labeling was identified. As these compounds were not initially purified, the labeling may have resulted from fluorescent byproducts of synthesis. Consequently, large-scale synthesis, purification and characterization (FIGS. 29A-29D) of the identified compounds were conducted. The purified compounds were subsequently retested using in vivo imaging to confirm cell type specificity.
It was reasoned that the best strategy to identify fluorophores with specific affinity to certain cell types and transport mechanisms would be by direct screening in the intact in vivo brain microenvironment. […]

Row | SMILES | Target (brain cell types) | other results
1 | COc1cc2c(c(OC)c1OC)-c1ccc(OC)c(=O)cc1[C@@H](NC(C)=O)CC2 [Colchicine] | – | alpha tubulin staining (NIH3T3 cells; 30 μM, NIH3T3 cells (FIG. 11A)): equal disruption of the tubulin structure; alpha tubulin staining (NIH3T3 cells; 100 μM, NIH3T3 cells (FIG. 11B)): equal disruption of the tubulin structure; phalloidin staining (NIH3T3 cells; 100 μM, NIH3T3 cells (FIG. 11D)): disruption of the tubulin structure; phalloidin staining (NIH3T3 cells; NIH3T3 cells (FIG. 11C), concentration not given): equal disruption of the tubulin structure; cell morphology / multinucleated cells (NIH3T3 cells; NIH3T3 cells (FIG. 17A)): changes in cell morphology and presence of multinucleated cells; pattern of α-tubulin immunofluorescence (NIH3T3 cells; NIH3T3 cells, 12 hours, varying concentrations (FIG. 17A)): diffuse labeling pattern
2 | O=S(=O)([O-])c1cc(S(=O)(=O)O)ccc1C1=c2cc3c4c(c2Oc2ccc(Br)cc21)CCC[N+]=4CCC3 [Compound 6, 2-(11-bromo-1,2,3,5,6,7-hexahydrochromeno[2,3-f]pyrido[3,2,1-ij]quinolin-4-ium-9-yl)-5-sulfobenzenesulfonate] | Endothelial | –
3 | O=S(=O)([O-])c1cc(S(=O)(=O)O)ccc1C1=c2cc3c4c(c2Oc2c1ccc(Cl)c2F)CCC[N+]=4CCC3 [Compound 20, 2-(12-chloro-13-fluoro-1,2,3,5,6,7-hexahydrochromeno[2,3-f]pyrido[3,2,1-ij]quinolin-4-ium-9-yl)-5-sulfobenzenesulfonate] | Endothelial | –
4 | CC(=O)N(O)CCCCCNC(=O)CCC(=O)N(O)CCCCCNC(=O)CCC(=O)N(O)CCCCCNS(=O)(=O)c1ccc(-c2c3ccc(N(C)C)cc3[o+]c3cc(N(C)C)ccc23)c(S(=O)(=O)[O-])c1 [Compound 49, 2-(3,6-bis(dimethylamino)xanthylium-9-yl)-5-(N-(3,14,25-trihydroxy-2,10,13,21,24-pentaoxo-3,9,14,20,25-pentaazatriacontan-30-yl)sulfamoyl)benzenesulfonate] | – | in vivo endothelial labeling/uptake (brain cell types): robust endothelial cell body uptake
5 | O=S(=O)([O-])c1cc(S(=O)(=O)O)ccc1-c1c2ccc(Br)cc2[o+]c2cc(N3CCOCC3)ccc12 [Compound 30, 2-(3-bromo-6-morpholinoxanthylium-9-yl)-5-sulfobenzenesulfonate] | Endothelial | –
6 | O=S(=O)([O-])c1cc(S(=O)(=O)O)ccc1-c1c2ccc(Br)cc2[o+]c2ccc(S(=O)(=O)O)cc12 [Compound 32, 2-(6-bromo-2-sulfoxanthylium-9-yl)-5-sulfobenzenesulfonate] | Endothelial | –
7 | O=[N+]([O-])c1ccc2c(c1)Oc1c3c4c(cc1=C2c1ccc(S(=O)(=O)O)cc1S(=O)(=O)[O-])CCC[N+]=4CCC3 [Compound 35, 2-(12-nitro-1,2,3,5,6,7-hexahydrochromeno[2,3-f]pyrido[3,2,1-ij]quinolin-4-ium-9-yl)-5-sulfobenzenesulfonate] | Astrocyte | –
8 | O=S(=O)([O-])c1cc(S(=O)(=O)O)ccc1C1=c2cc3c4c(c2Oc2c1ccc(F)c2F)CCC[N+]=4CCC3 [Compound 19, 2-(12,13-difluoro-1,2,3,5,6,7-hexahydrochromeno[2,3-f]pyrido[3,2,1-ij]quinolin-4-ium-9-yl)-5-sulfobenzenesulfonate] | Endothelial | –
9 | CCN(CC)c1ccc2c(-c3ccc(S(=O)(=O)NCCOCCOCCOCCOCCOCCOCCOCCOCCOCCOCCOCCOCCOCCOCCOCCOCCOCCOCCOCCOCCOCCOCCOCCOCCOCCOCCOCCOCCOCCOCCOCCOCCOCCOCCOCCOCCOCCOCCOCCOCCOCCOCCOCCOCCOC)cc3S(=O)(=O)[O-])c3ccc(N(CC)CC)cc3[o+]c2c1 [Compound 57] | – | in vivo endothelial labeling/uptake (brain cell types): highly specific in vivo endothelial labeling
10 | O=S(=O)([O-])c1cc(S(=O)(=O)O)ccc1C1=c2cc3c4c(c2Oc2c1ccc(Br)c2F)CCC[N+]=4CCC3 [Compound 21, 2-(12-bromo-13-fluoro-1,2,3,5,6,7-hexahydrochromeno[2,3-f]pyrido[3,2,1-ij]quinolin-4-ium-9-yl)-5-sulfobenzenesulfonate] | Endothelial | –
11 | Cc1ccc2c(-c3ccc(S(=O)(=O)O)cc3S(=O)(=O)[O-])c3cc4c5c(c3[o+]c2c1)CCCN5CCC4 [Compound 40, 2-(12-methyl-2,3,6,7-tetrahydro-1H,5H-chromeno[2,3-f]pyrido[3,2,1-ij]quinolin-14-ium-9-yl)-5-sulfobenzenesulfonate] | Endothelial | –
12 | O=C(O)CCc1ccc2c(c1)Oc1c3c4c(cc1=C2c1ccc(S(=O)(=O)O)cc1S(=O)(=O)[O-])CCC[N+]=4CCC3 [Compound 37, 2-(12-(2-carboxyethyl)-1,2,3,5,6,7-hexahydrochromeno[2,3-f]pyrido[3,2,1-ij]quinolin-4-ium-9-yl)-5-sulfobenzenesulfonate] | Astrocyte | –
13 | O=S(=O)([O-])c1cc(S(=O)(=O)O)ccc1C1=c2cc3c4c(c2Oc2cc(I)c(Cl)cc21)CCC[N+]=4CCC3 [Compound 16, 2-(11-chloro-12-iodo-1,2,3,5,6,7-hexahydrochromeno[2,3-f]pyrido[3,2,1-ij]quinolin-4-ium-9-yl)-5-sulfobenzenesulfonate] | Endothelial | –
14 | CN(Cc1cnc2nc(NS(=O)(=O)c3ccc(C4=c5cc6c7c(c5Oc5cc(Br)ccc54)CCC[N+]=7CCC6)c(S(=O)(=O)[O-])c3)nc(N)c2n1)c1ccc(C(=O)N[C@@H](CCC(=O)O)C(=O)O)cc1 [52a/52b] | – | endothelial cell labeling/uptake after topical application to the brain (brain cell types; topical cortical application): very strong
15 | O=S(=O)([O-])c1cc(S(=O)(=O)O)ccc1C1=c2cc3c4c(c2Oc2cc5ccc(Br)cc5cc21)CCC[N+]=4CCC3 [Compound 44, 2-(12-bromo-1,2,3,5,6,7-hexahydrobenzo[6,7]chromeno[2,3-f]pyrido[3,2,1-ij]quinolin-4-ium-9-yl)-5-sulfobenzenesulfonate] | Endothelial | –
16 | CN(C)c1ccc2c(-c3ccc(S(=O)(=O)NCCNC(=O)OC(C)(C)C)cc3S(=O)(=O)[O-])c3ccc(N(C)C)cc3[o+]c2c1 [Compound 55, 2-(3,6-bis(dimethylamino)xanthylium-9-yl)-5-(N-(2-((tert-butoxycarbonyl)amino)ethyl)sulfamoyl)benzenesulfonate] | – | in vivo endothelial labeling/uptake (brain cell types): robust endothelial cell body uptake
17 | O=S(=O)([O-])c1cc(S(=O)(=O)O)ccc1C1=c2cc3c4c(c2Oc2cc(Br)c(Cl)cc21)CCC[N+]=4CCC3 [Compound 15, 2-(12-bromo-11-chloro-1,2,3,5,6,7-hexahydrochromeno[2,3-f]pyrido[3,2,1-ij]quinolin-4-ium-9-yl)-5-sulfobenzenesulfonate] | Endothelial | –
18 | O=S(=O)([O-])c1cc(S(=O)(=O)O)ccc1C1=c2cc3c4c(c2Oc2cc(F)c(Cl)cc21)CCC[N+]=4CCC3 [Compound 9, 2-(11-chloro-12-fluoro-1,2,3,5,6,7-hexahydrochromeno[2,3-f]pyrido[3,2,1-ij]quinolin-4-ium-9-yl)-5-sulfobenzenesulfonate] | Endothelial | –
19 | O=S(=O)([O-])c1cc(S(=O)(=O)O)ccc1C1=c2cc3c4c(c2Oc2c1ccc(F)c2Cl)CCC[N+]=4CCC3 [Compound 22, 2-(13-chloro-12-fluoro-1,2,3,5,6,7-hexahydrochromeno[2,3-f]pyrido[3,2,1-ij]quinolin-4-ium-9-yl)-5-sulfobenzenesulfonate] | Endothelial | –
20 | Cc1ccc2c(-c3ccc(S(=O)(=O)O)cc3S(=O)(=O)[O-])c3ccc(Br)cc3[o+]c2c1 [Compound 29] | Endothelial | –
21 | O=S(=O)([O-])c1cc(S(=O)(=O)O)ccc1C1=c2cc3c4c(c2Oc2c(Br)cccc21)CCC[N+]=4CCC3 [Compound 5, 2-(13-bromo-1,2,3,5,6,7-hexahydrochromeno[2,3-f]pyrido[3,2,1-ij]quinolin-4-ium-9-yl)-5-sulfobenzenesulfonate] | Endothelial | –
